The text below walks through data of patent US9637492B2, “Benzothiazole kinase inhibitors and methods of use” (Intellikine LLC, priority 2008, dated 2017).

The target in series [1] is T1, mTORC (Homo sapiens, UniProt P42345).
T1 construct: purchased Invitrogen
Nature of the series: mTOR inhibition assay (Table 4, mTORC). The series is classed as biochemical. The note with it: binned. The protocol:
The compounds described herein can be tested against recombinant mTOR (Invitrogen) in an assay containing 50 mM HEPES, pH 7.5, 1 mM EGTA, 10 mM MgCl2, 2.5 mM, 0.01% Tween, 10 μM ATP (2.5 μCi of […]), and 3 μg/mL BSA. Rat recombinant PHAS-1/4EBP1 (Calbiochem; 2 mg/mL) is used as a substrate. Reactions are terminated by spotting onto nitrocellulose, which is washed with 1M NaCl/1% phosphoric acid (approximately 6 times, 5-10 minutes each). Sheets are dried and the transferred radioactivity quantitated by phosphorimaging.
Other kits or systems for assaying mTOR activity are commercially avaiable. For instance, one can use Invitrogen's LanthaScreen™ Kinase assay to test the inhibitors of mTOR disclosed herein. This assay is a time resolved FRET platform that measures the phosphorylation of GFP labeled 4EBP1 by mTOR kinase. The kinase reaction is performed in a white 384 well microtitre plate. The total reaction volume is 20 ul per well and the reaction buffer composition is 50 mM HEPES pH7.5, 0.01% Polysorbate 20, 1 mM EGTA, 10 mM MnC12, and 2 mM DTT. In the first step, each well receives 2 ul of test compound in 20% dimethylsulphoxide resulting in a 2% DMSO final concentration. Next, 8 ul of mTOR diluted in reaction buffer is added per well for a 60 ng/ml final concentration. To start the reaction, 10 ul of an ATP/GFP-4EBP1 mixture (diluted in reaction buffer) is added per well for a final concentration of 10 uM ATP and 0.5 uM GFP-4EBP1. The plate is sealed and incubated for 1 hour at room temperature. The reaction is stopped by adding 10 ul per well of a Tb-anti-pT46 4EBP1 antibody/EDTA mixture (diluted in TR-FRET buffer) for a final concentration of 1.3 nM antibody and 6.7 mM EDTA. The plate is sealed, incubated for 1 hour at room temperature, and then read on a plate reader set up for LanthaScreen™ TR-FRET. Data is analyzed and IC50s are generated using GraphPad Prism 5.

Series [2] deals with T2, PI3K alpha (Homo sapiens, UniProt P42336).
T2 construct: purchased Upstate
T2 sequence (P42336 whole entry): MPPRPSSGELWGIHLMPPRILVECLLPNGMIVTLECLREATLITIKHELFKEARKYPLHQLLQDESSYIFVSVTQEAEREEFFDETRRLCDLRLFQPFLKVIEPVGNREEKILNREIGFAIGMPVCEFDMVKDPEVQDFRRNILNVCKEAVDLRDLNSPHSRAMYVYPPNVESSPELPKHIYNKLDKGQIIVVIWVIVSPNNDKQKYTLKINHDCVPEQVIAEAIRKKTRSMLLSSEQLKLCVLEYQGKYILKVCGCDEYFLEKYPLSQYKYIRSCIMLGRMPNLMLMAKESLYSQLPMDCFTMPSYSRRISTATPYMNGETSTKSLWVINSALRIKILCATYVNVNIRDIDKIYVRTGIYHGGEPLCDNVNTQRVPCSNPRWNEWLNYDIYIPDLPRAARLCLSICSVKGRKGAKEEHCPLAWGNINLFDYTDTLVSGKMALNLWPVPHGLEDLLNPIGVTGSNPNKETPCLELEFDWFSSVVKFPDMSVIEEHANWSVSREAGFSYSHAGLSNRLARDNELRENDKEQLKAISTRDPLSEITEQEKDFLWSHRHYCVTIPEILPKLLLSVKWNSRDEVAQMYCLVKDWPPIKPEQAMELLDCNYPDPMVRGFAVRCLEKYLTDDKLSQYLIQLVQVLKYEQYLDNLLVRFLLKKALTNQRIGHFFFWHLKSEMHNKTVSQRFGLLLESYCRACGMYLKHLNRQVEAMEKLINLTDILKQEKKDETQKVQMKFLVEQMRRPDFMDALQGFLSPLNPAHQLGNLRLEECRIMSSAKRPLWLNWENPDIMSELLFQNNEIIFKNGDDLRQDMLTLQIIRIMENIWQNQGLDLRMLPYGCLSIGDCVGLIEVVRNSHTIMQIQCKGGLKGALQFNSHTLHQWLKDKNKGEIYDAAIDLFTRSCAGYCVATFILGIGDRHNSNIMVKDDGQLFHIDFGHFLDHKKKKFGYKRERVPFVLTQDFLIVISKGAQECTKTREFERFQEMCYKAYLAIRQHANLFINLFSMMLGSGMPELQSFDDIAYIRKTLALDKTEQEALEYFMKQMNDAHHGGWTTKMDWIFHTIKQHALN
T2 sequence (P27986 whole entry partner): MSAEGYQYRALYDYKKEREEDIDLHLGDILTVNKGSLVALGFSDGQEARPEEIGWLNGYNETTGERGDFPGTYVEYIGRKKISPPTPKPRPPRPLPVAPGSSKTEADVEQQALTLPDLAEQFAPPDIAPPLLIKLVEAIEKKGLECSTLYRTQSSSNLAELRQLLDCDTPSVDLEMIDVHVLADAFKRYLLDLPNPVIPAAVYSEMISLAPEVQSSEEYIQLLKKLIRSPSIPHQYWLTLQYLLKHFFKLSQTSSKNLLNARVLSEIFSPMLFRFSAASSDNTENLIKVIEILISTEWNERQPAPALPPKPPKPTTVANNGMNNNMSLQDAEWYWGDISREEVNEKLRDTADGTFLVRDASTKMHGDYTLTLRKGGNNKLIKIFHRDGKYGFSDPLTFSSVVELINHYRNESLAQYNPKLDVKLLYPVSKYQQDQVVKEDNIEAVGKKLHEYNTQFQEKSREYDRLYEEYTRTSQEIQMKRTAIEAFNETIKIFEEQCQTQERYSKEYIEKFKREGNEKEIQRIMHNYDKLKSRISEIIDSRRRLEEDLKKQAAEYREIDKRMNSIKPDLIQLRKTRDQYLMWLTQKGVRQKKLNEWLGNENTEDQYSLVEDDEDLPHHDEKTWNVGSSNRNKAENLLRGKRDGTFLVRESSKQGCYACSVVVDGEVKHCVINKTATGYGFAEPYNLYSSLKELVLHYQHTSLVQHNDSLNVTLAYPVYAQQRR
Nature of the series: PI3K alpha inhibition assay. The series is classed as biochemical. The note with it: binned.
Procedure: (§1) For TLC analysis, reactions are then terminated by the addition of 105 μl 1N HCl followed by 160 μl CHC13:MeOH (1:1). The biphasic mixture is vortexed, briefly centrifuged, and the organic phase is transferred to a new tube using a gel loading pipette tip precoated with CHCl3. […] The TLC plates are then dried, exposed to a phosphorimager screen (Storm, Amersham), and quantitated.
(§2) Anr exemplary system is PI 3-Kinase (human) HTRF™ Assay from Upstate. […] Briefly, the assay is a time resolved FRET assay that indirectly measures PIP3 product formed by the activity of a PI3-K. The kinase reaction is performed in a microtitre plate (e.g., a 384 well microtitre plate). The total reaction volume is approximately 20 ul per well. In the first step, each well receives 2 ul of test compound in 20% dimethylsulphoxide resulting in a 2% DMSO final concentration. Next, approximately 14.5 ul of a kinase/PIP2 mixture (diluted in 1× reaction buffer) is added per well for a final concentration of 0.25-0.3 ug/ml kinase and 10 uM PIP2. The plate is sealed and incubated for 15 minutes at room temperature. To start the reaction, 3.5 ul of ATP (diluted in 1× reaction buffer) is added per well for a final concentration of 10 uM ATP. The plate is sealed and incubated for 1 hour at room temperature. The reaction is stopped by adding 5 ul of Stop Solution per well and then 5 ul of Detection Mix is added per well. The plate is sealed, incubated for 1 hour at room temperature, and then read on an appropriate plate reader. Data is analyzed and IC50s are generated using GraphPad Prism 5.

The target of series [3] is T3, PI3K beta (Homo sapiens, UniProt P42338).
T3 construct: purchased Upstate
T3 sequence (P42338 whole entry): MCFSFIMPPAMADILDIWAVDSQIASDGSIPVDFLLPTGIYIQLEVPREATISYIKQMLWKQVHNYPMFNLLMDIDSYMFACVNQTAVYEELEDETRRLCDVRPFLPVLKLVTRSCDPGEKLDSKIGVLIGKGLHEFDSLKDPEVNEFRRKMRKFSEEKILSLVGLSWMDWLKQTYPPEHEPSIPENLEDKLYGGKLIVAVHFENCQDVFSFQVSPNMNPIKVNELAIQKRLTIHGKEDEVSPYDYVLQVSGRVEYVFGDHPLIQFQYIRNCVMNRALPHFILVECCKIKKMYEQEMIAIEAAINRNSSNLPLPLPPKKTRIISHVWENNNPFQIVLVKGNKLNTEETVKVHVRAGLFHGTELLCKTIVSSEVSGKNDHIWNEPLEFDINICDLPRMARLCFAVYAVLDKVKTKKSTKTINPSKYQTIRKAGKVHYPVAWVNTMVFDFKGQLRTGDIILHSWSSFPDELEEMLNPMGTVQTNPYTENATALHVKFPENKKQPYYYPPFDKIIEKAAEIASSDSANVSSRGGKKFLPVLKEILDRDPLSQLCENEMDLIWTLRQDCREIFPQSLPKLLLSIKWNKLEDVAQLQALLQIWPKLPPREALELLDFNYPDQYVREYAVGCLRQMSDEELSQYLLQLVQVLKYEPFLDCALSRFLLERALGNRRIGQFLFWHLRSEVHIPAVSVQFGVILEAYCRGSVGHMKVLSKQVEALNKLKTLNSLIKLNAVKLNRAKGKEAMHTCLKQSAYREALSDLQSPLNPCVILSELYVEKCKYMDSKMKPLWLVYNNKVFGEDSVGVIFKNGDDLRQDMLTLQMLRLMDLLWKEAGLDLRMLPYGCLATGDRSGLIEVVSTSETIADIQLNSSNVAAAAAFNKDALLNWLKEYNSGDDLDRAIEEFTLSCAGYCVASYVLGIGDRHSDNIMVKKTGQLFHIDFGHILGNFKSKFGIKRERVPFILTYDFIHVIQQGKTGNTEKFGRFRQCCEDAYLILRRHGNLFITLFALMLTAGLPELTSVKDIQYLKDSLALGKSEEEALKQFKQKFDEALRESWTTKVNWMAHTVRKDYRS
T3 sequence (P27986 2-724 partner): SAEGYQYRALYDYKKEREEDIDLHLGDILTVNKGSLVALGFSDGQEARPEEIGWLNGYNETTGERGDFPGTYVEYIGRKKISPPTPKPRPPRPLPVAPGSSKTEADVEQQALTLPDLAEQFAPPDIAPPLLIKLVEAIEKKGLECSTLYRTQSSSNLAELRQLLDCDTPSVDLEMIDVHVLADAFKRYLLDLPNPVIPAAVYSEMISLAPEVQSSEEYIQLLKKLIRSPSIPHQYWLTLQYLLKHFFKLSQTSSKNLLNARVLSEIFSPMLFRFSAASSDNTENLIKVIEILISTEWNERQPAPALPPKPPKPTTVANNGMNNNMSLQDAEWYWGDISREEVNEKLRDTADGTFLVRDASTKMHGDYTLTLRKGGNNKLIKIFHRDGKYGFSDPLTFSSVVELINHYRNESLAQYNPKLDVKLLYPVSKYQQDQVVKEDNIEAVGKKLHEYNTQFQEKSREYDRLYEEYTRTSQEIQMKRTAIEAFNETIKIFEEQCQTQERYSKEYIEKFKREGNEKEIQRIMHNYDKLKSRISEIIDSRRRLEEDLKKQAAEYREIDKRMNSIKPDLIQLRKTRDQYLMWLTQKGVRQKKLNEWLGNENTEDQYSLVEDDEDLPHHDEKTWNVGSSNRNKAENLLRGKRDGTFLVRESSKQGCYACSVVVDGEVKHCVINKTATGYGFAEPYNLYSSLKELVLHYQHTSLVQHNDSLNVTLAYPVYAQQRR
Nature of the series: PI3K beta inhibition assay. The format is biochemical. The note with it: binned.
Procedure: as §1, §2

Series [4] concerns the target T4, PI3K delta (Homo sapiens, UniProt O00329).
T4 construct: purchased Upstate
Kind of series: PI3K delta inhibition assay. The format is biochemical. Particulars: binned.
Procedure: as §1, §2

For series [5], the target named is T5, PI3K gamma (Homo sapiens, UniProt P48736).
T5 construct: purchased Sigma
Kind of series: PI3K gamma inhibition assay. The series is classed as biochemical. Particulars: binned. On the procedure:
For TLC analysis, reactions are then terminated by the addition of 105 μl 1N HCl followed by 160 μl CHC13:MeOH (1:1). The biphasic mixture is vortexed, briefly centrifuged, and the organic phase is transferred to a new tube using a gel loading pipette tip precoated with CHCl3. This extract is spotted on TLC plates and developed for 3-4 hours in a 65:35 solution of n-propanol:1M acetic acid. The TLC plates are then dried, exposed to a phosphorimager screen (Storm, Amersham), and quantitated. For each compound, kinase activity is measured at 10-12 inhibitor concentrations representing two-fold dilutions from the highest concentration tested (typically, 200 μM).
Other commercial kits or systems for assaying PI3-K activities are available. The commercially available kits or systems can be used to screen for inhibitors and/or agonists of PI3-Ks including but not limited to PI 3-Kinase α, β, δ, and γ. Anr exemplary system is PI 3-Kinase (human) HTRF™ Assay from Upstate. […] Briefly, the assay is a time resolved FRET assay that indirectly measures PIP3 product formed by the activity of a PI3-K. The kinase reaction is performed in a microtitre plate (e.g., a 384 well microtitre plate). […] The plate is sealed, incubated for 1 hour at room temperature, and then read on an appropriate plate reader. Data is analyzed and IC50s are generated using GraphPad Prism 5.

Series [6] has as its system PC3. Nature of the series: Tumor cell line proliferation assay (Alamar Blue). The format is cell-based. Particulars: Homo sapiens, PC-3; binned. The protocol:
The ability of one or more subject compounds to inhibit tumor cell line proliferation is determined according to standard procedures known in the art. For instance, an in vitro cellular proliferation assay can be performed to measure the metabolic activity of live cells. The assay is performed in a 96 well microtiter plate using Alamar Blue reduction. Human tumor cell lines are obtained from ATCC (e.g., MCF7, U-87 MG, MDA-MB-468, PC-3), grown to confluency in T75 flasks, trypsinized with 0.25% trypsin, washed one time with Tumor Cell Media (DMEM+10% FBS), and plated in 90 ul at 5,000 cells/well in Tumor Cell Media. A compound disclosed herein is diluted in Tumor Cell Media and added in a 10 ul volume. Plates are incubated for 72 hours at 37 C and 5% CO2. A volume of 10 uL of Alamar Blue reagent is added to each well and plates are incubated for 3 hours at 37 C and 5% CO2. Alamar Blue fluoresce is read at 560Ex/590Em, and IC50 values are calculated using GraphPad Prism 5.
On the technique in general: Resazurin is reduced to fluorescent resorufin, in cell work by metabolically active cells.

For series [7], the system named is B6.Sle1z.Sle3z model. Particulars: cited from earlier work.
For series [8] the following is noted: PBS pH 7.4, 37° C., over the course of 24 hours; cited from earlier work.
Series [9] relates to p190 transduced leukemic cells. The note with it: about 70 mg/kg twice daily; cited from earlier work.
For series [10] the following is noted: control or reference compounds, 5 μM; cited from earlier work.

T1 sequence (P42345 1360-2549 limits assumed): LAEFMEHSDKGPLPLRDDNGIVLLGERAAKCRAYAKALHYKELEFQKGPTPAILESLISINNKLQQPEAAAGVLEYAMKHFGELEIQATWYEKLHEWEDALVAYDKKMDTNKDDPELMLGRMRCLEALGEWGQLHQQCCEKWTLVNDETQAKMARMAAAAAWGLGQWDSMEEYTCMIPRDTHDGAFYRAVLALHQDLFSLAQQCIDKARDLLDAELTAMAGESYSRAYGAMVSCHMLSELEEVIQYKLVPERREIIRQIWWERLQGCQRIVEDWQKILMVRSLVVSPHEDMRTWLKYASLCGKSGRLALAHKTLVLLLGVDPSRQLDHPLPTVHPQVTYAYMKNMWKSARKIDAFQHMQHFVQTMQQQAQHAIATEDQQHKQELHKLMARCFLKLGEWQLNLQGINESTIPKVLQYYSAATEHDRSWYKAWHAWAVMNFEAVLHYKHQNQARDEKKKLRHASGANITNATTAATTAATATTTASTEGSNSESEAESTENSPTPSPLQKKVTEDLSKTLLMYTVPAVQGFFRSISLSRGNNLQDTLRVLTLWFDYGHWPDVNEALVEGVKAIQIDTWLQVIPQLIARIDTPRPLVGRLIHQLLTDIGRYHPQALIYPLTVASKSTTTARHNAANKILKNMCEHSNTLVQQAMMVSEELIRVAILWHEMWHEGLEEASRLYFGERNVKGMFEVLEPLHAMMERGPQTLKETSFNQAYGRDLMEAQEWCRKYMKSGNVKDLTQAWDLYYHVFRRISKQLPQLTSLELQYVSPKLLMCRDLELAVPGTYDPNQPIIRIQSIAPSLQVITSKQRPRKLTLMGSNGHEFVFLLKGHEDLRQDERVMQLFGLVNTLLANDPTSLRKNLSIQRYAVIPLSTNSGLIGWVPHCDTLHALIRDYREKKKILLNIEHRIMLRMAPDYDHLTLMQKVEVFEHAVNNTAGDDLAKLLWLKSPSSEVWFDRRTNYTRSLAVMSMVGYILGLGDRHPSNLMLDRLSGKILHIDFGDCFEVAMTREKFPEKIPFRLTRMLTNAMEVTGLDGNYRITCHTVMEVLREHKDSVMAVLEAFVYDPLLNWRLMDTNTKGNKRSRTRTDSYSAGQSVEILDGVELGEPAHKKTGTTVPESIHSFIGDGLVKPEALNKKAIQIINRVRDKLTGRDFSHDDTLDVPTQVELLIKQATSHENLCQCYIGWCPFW

One may read the IC50 as the concentration needed to halve the response being measured. As to `CC(=O)Nc1nc2ccc(-c3nn(C(C)C)c4ncnc(N)c34)cc2s1` [Compound 1], the IC50 in series [1] is not above 50 nM; in series [2], not above 500 nM; in series [3] it was more than 1000 nM.
As for `CC(C)n1nc(-c2ccc3ncsc3c2)c2c(N)ncnc21` [Compound 2], the 50% inhibitory concentration (IC50) in series [1] was more than 1000 nM.
Turning to `CC(C)n1nc(-c2ccc3nc(N)sc3c2)c2c(N)ncnc21` [Compound 3], the IC50 in series [1] is not above 50 nM; in series [2], not above 500 nM; in series [3], more than 1000 nM; in [4], not above 100 nM.
Turning to `CC(=O)Nc1nc2ccc(-c3nn(C4CCCC4)c4ncnc(N)c34)cc2s1` [Compound 4], the IC50 is not above 50 nM in [1] and more than 1000 nM in series [3].
For the compound `CCn1nc(-c2ccc3nc(NC(C)=O)sc3c2)c2c(N)ncnc21` [Compound 5], the half-inhibitory concentration (IC50) in [1] is not above 50 nM; in [2] it was not above 100 nM; in [3] it was more than 1000 nM.
On to `CC(=O)Nc1nc2ccc(-c3nn(C)c4ncnc(N)c34)cc2s1` [Compound 6], for which the IC50 in [1] was more than 1000 nM; in series [2], not above 1000 nM.
With `CC(C)C(=O)Nc1nc2ccc(-c3nn(C(C)C)c4ncnc(N)c34)cc2s1` [Compound 7], the IC50 in [1] is more than 1000 nM.
Consider `CC(C)n1nc(-c2ccc3nc(NC(=O)C4CC4)sc3c2)c2c(N)ncnc21` [Compound 8], for which the IC50 in series [1] was not above 500 nM; in series [2] it was not above 1000 nM.
Consider `CCC(=O)Nc1nc2ccc(-c3nn(C(C)C)c4ncnc(N)c34)cc2s1` [Compound 9], for which the IC50 in [1] and in series [2] was not above 500 nM each time.
For `CC(=O)Nc1nc2ccc(-c3nn(C4CCC4)c4ncnc(N)c34)cc2s1` [Compound 10], the IC50 in series [1], in series [2] and in [4] was not above 100 nM each time.
Take `CNc1nc2ccc(-c3nn(C(C)C)c4ncnc(N)c34)cc2s1` [Compound 11]: the IC50 is not above 50 nM in series [1], not above 100 nM in [2], more than 1000 nM in series [3] and not above 500 nM in [4].
Take `CCNc1nc2ccc(-c3nn(C(C)C)c4ncnc(N)c34)cc2s1` [Compound 12]: the IC50 was not above 500 nM in [1], not above 500 nM in [2], not above 500 nM in series [5] and not above 1000 nM in [4].
`CC(C)n1nc(-c2ccc3nc(NCCN4CCOCC4)sc3c2)c2c(N)ncnc21` [Compound 13]: the IC50 in series [1] and in series [2] was more than 1000 nM throughout.
With `CC(C)n1nc(-c2ccc3nc(N4CCOCC4)sc3c2)c2c(N)ncnc21` [Compound 14], the IC50 in series [1] and in series [2] was more than 1000 nM in each case.
`CC(C)n1nc(-c2ccc3nc(NC4CC4)sc3c2)c2c(N)ncnc21` [Compound 15]: the IC50 was not above 500 nM in series [1], more than 1000 nM in series [2] and more than 1000 nM in series [3].
As to `CC(C)n1nc(-c2ccc3nc(NCCO)sc3c2)c2c(N)ncnc21` [Compound 16], the IC50 in series [1] and in [2] was not above 1000 nM each time.
As to `CC(=O)Nc1nc2cc(-c3nn(C(C)C)c4ncnc(N)c34)ccc2s1` [Compound 17], the IC50 in series [1] was not above 1000 nM.
For `CNC(=O)Cn1nc(-c2ccc3nc(NC(C)=O)sc3c2)c2c(N)ncnc21` [Compound 18], the IC50 in [1], in series [3] and in series [5] was more than 1000 nM in each case.
With `CC(=O)Nc1nc2ccc(-c3nn(C4CCOCC4)c4ncnc(N)c34)cc2s1` [Compound 19], the IC50 in series [1] is not above 50 nM; in series [2], not above 500 nM.
Take `CNC(=O)Nc1nc2ccc(-c3nn(C(C)C)c4ncnc(N)c34)cc2s1` [Compound 20]: the IC50 in series [1] is not above 50 nM.
In the case of `CNC(=O)Nc1nc2ccc(-c3cn(C4CCOCC4)c4ncnc(N)c34)cc2s1` [Compound 21], the IC50 was not above 50 nM in series [1] and not above 1000 nM in [6].
In the case of `CNC(=O)Nc1nc2ccc(-c3cn(C(C)C)c4ncnc(N)c34)cc2s1` [Compound 22], the IC50 in series [1] is not above 50 nM; in [6], not above 100 nM.
On to `CNC(=O)Nc1nc2ccc(-c3cn(C4CCN(C(C)=O)CC4)c4ncnc(N)c34)cc2s1` [Compound 23], for which the IC50 was not above 50 nM in series [1], not above 100 nM in series [3] and more than 1000 nM in [6].
Turning to `CO[C@H]1C[C@@H]2CC[C@@H](C)[C@@](O)(O2)C(=O)C(=O)N2CCCC[C@H]2C(=O)O[C@H]([C@H](C)C[C@@H]2CC[C@@H](OCCO)[C@H](OC)C2)CC(=O)[C@H](C)/C=C(\C)[C@@H](O)[C@@H](OC)C(=O)[C@H](C)C[C@H](C)/C=C/C=C/C=C/1C` [RAD001], the lupus symptoms result in [7] is “ameliorate lupus symptoms”.
Regarding `O=C(O)CCCc1ccc(N(CCCl)CCCl)cc1` [chlorambucil], the chemical stability entry in series [8] is “largely hydrolyzed”.
As to `Cc1ccc(NC(=O)c2ccc(CN3CCN(C)CC3)cc2)cc1Nc1nccc(-c2cccnc2)n1` [imatinib], in series [9], the leukemogenesis result is given as “delay but not cure leukemogenesis”.
`CC(C)[N+](C)(CCOC(=O)C1c2ccccc2Oc2ccccc21)C(C)C` [propantheline]: the plasma stability result in series [10] is on record as “intermediate plasma stability”.
In the case of `CCCOc1cc(N)ccc1C(=O)OCCN(CC)CC` [propoxycaine], the plasma stability entry in [10] is given as “low plasma stability”.
